Read-outs that look alike come from different tables or passages of the source.
Tested on: Triple negative breast cancer cell line CAL51
Assay: Cell Titer Glo proliferation assay, CAL51
Assay type: cell-based
Conditions: Homo sapiens, CAL-51, read-out: Act. Level
In short: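 CAL51 cells grown in DMEM or RPMI1640 with 10% FBS and 2 mM L-glutamine, cultured overnight, then exposed to serially diluted compound (0.2% DMSO final) for 72 h. Viability read by Cell Titer Glo luminescence.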

[1] = CAL51 cell proliferation, Cell Titer Glo
[2] = CAL51 cell proliferation (Table 1)

Row | SMILES | IC50 [1] | IC50 [2]
1 | COc1cc(-c2c[nH]c3nc(Nc4ccc(C(=O)NC5COC5)cc4OC)nc(OC)c23)ccn1 [Example 389, 3-methoxy-4-(4-methoxy-5-(2-methoxypyridin-4-yl)-7H-pyrrolo[2,3-d]pyrimidin-2-ylamino)-N-(oxetan-3-yl)benzamide] | < 100 nM | –
2 | COc1cc(C(=O)NC2COC2)ccc1Nc1nc(OC)c2c(-c3cnn(C)c3)c[nH]c2n1 [Example 382, 3-methoxy-4-(4-methoxy-5-(1-methyl-1H-pyrazol-4-yl)-7H-pyrrolo[2,3-d]pyrimidin-2-ylamino)-N-(oxetan-3-yl)benzamide] | 100 to 400 nM | –
3 | CNC(=O)c1ccc(-c2c[nH]c3nc(Nc4ccc(C(=O)NC5COC5)cc4OC)nc(OC4CC(C#N)C4)c23)cc1 (stereo not drawn) [Example 341, 4-(4-(3-cyanocyclobutoxy)-5-(4-(methylcarbamoyl)phenyl)-7H-pyrrolo[2,3-d]pyrimidin-2-ylamino)-3-methoxy-N-(oxetan-3-yl)benzamide] | < 100 nM | –
4 | COc1nc(Nc2ccc(C(=O)N(C)C)cc2C)nc2[nH]cc(-c3ccc4nc(C)n(C)c4c3)c12 [Example 407, 4-(5-(1,2-dimethyl-1H-benzo[d]imidazol-6-yl)-4-methoxy-7H-pyrrolo[2,3-d]pyrimidin-2-ylamino)-N,N,3-trimethylbenzamide] | – | 100 to 400 nM
5 | COc1nc(Nc2cn(C)nc2C)nc2[nH]cc(-c3ccncc3)c12 [Example 393, N-(1,3-dimethyl-1H-pyrazol-4-yl)-4-methoxy-5-(pyridin-4-yl)-7H-pyrrolo[2,3-d]pyrimidin-2-amine] | 100 to 400 nM | –
6 | CNC(=O)c1ccc(-c2c[nH]c3nc(Nc4ccc(C(=O)NC5CN(C)C5)cc4OC)nc(OC(C)(C)C)c23)cc1 [Example 355, 4-(4-tert-butoxy-5-(4-(methylcarbamoyl)phenyl)-7H-pyrrolo[2,3-d]pyrimidin-2-ylamino)-3-methoxy-N-(1-methylazetidin-3-yl)benzamide] | < 100 nM | –
7 | CNC(=O)c1ccc(Nc2nc(O[C@H]3CCOC3)c3c(-c4cnn(C)c4)c[nH]c3n2)c(OC)c1 [Example 328, (S)-3-methoxy-N-methyl-4-(5-(1-methyl-1H-pyrazol-4-yl)-4-(tetrahydrofuran-3-yloxy)-7H-pyrrolo[2,3-d]pyrimidin-2-ylamino)benzamide] | < 100 nM | –
8 | COc1cc(C(=O)NC2COC2)ccc1Nc1nc(OC)c2c(-c3cc(C)nc(Cl)c3)c[nH]c2n1 [Example 437, 4-(5-(2-chloro-6-methylpyridin-4-yl)-4-methoxy-7H-pyrrolo[2,3-d]pyrimidin-2-ylamino)-3-methoxy-N-(oxetan-3-yl)benzamide] | – | < 100 nM
9 | COc1nc(Nc2ccc(C(=O)N(C)C)cc2C)nc2[nH]cc(-c3ccc(S(C)(=O)=O)cc3)c12 [Example 411, 4-(4-methoxy-5-(4-(methylsulfonyl)phenyl)-7H-pyrrolo[2,3-d]pyrimidin-2-ylamino)-N,N,3-trimethylbenzamide] | – | 1000 to 10000 nM
10 | COc1cc(C(=O)NC2COC2)ccc1Nc1nc(OC2(C)CCC2)c2c(-c3ccc4nc(C)oc4c3)c[nH]c2n1 [Example 379, 3-methoxy-4-(5-(2-methylbenzo[d]oxazol-6-yl)-4-(1-methylcyclobutoxy)-7H-pyrrolo[2,3-d]pyrimidin-2-ylamino)-N-(oxetan-3-yl)benzamide] | < 100 nM | –
11 | COc1cc(C(=O)NC2CN(C)C2)ccc1Nc1nc(OC(C)(C)C)c2c(-c3ccc4nc(C)oc4c3)c[nH]c2n1 [Example 354, 4-(4-tert-butoxy-5-(2-methylbenzo[d]oxazol-6-yl)-7H-pyrrolo[2,3-d]pyrimidin-2-ylamino)-3-methoxy-N-(1-methylazetidin-3-yl)benzamide] | < 100 nM | –
12 | CNC(=O)c1ccc(Nc2nc(OCCOC)c3c(-c4cnn(C)c4)c[nH]c3n2)c(OC)c1 [Example 326, 3-methoxy-4-(4-(2-methoxyethoxy)-5-(1-methyl-1H-pyrazol-4-yl)-7H-pyrrolo[2,3-d]pyrimidin-2-ylamino)-N-methylbenzamide] | < 100 nM | –
13 | COc1nc(Nc2ccc(C(=O)N(C)C)cc2C)nc2[nH]cc(-c3ccc(-c4ncc[nH]4)cc3)c12 [Example 397, 4-(5-(4-(1H-imidazol-2-yl)phenyl)-4-methoxy-7H-pyrrolo[2,3-d]pyrimidin-2-ylamino)-N,N,3-trimethylbenzamide] | < 100 nM | –
14 | CNC(=O)c1ccc(-c2c[nH]c3nc(Nc4ccc(C(=O)NC5COC5)cc4OC)nc(OC4CC(F)(F)C4)c23)cc1 [Example 345, 4-(4-(3,3-difluorocyclobutoxy)-5-(4-(methylcarbamoyl)phenyl)-7H-pyrrolo[2,3-d]pyrimidin-2-ylamino)-3-methoxy-N-(oxetan-3-yl)benzamide] | < 100 nM | –
15 | COc1nc(Nc2ccc(C(=O)N(C)C3COC3)cc2C)nc2[nH]cc(-c3ccncc3)c12 [Example 406, 4-(4-methoxy-5-(pyridin-4-yl)-7H-pyrrolo[2,3-d]pyrimidin-2-ylamino)-N,3-dimethyl-N-(oxetan-3-yl)benzamide] | – | 100 to 400 nM
16 | COc1nc(Nc2ccc(C(=O)N(C)C)cc2C)nc2[nH]cc(-c3ccc4c(c3)nc(C)n4C)c12 [Example 410, 4-(5-(1,2-dimethyl-1H-benzo[d]imidazol-5-yl)-4-methoxy-7H-pyrrolo[2,3-d]pyrimidin-2-ylamino)-N,N,3-trimethylbenzamide] | – | 1000 to 10000 nM
17 | CNC(=O)c1ccc(-c2c[nH]c3nc(Nc4ccc(C(=O)NCCO)cc4OC)nc(OC4CCC4)c23)cc1 [Example 331, 4-(4-cyclobutoxy-5-(4-(methylcarbamoyl)phenyl)-7H-pyrrolo[2,3-d]pyrimidin-2-ylamino)-N-(2-hydroxyethyl)-3-methoxybenzamide] | 100 to 400 nM | –
18 | CNC(=O)c1ccc(-c2c[nH]c3nc(Nc4ccc(C(=O)NC5COC5)cc4OC)nc(OC4CCC4)c23)cc1F [Example 353, 4-(4-cyclobutoxy-2-(2-methoxy-4-(oxetan-3-ylcartbamoyl)phenylamino)-7H-pyrrolo[2,3-d]pyrimidin-5-yl)-2-fluoro-N-methylbenzamide] | 1000 to 10000 nM | –

Next, values leading:

Row | IC50 [1] | IC50 [2] | SMILES
19 | < 100 nM | – | COc1cc(C(=O)NC2COC2)ccc1Nc1nc(OC)c2c(-c3ccnc(C)c3)c[nH]c2n1 [Example 383, 3-methoxy-4-(4-methoxy-5-(2-methylpyridin-4-yl)-7H-pyrrolo[2,3-d]pyrimidin-2-ylamino)-N-(oxetan-3-yl)benzamide]
20 | 100 to 400 nM | – | COc1cc(C(=O)NC2CN(C)C2)ccc1Nc1nc(OC2CCC(C)(O)CC2)c2c(-c3ccc4nc(C)oc4c3)c[nH]c2n1 (stereo not drawn) [Example 358, 4-(4-((1s,4s)-4-hydroxy-4-methylcyclohexyloxy)-5-(2-methylbenzo[d]oxazol-6-yl)-7H-pyrrolo[2,3-d]pyrimidin-2-ylamino)-3-methoxy-N-(1-methylazetidin-3-yl)benzamide]
21 | 100 to 400 nM | – | CNC(=O)c1ccc(-c2c[nH]c3nc(Nc4ccc(C(=O)NC5COC5)cc4OC)nc(OC4CC4)c23)cc1 [Example 344, 4-(4-cyclopropoxy-5-(4-(methylcarbamoyl)phenyl)-7H-pyrrolo[2,3-d]pyrimidin-2-ylamino)-3-methoxy-N-(oxetan-3-yl)benzamide]
22 | < 100 nM | – | COc1cc(C(=O)NC2COC2)ccc1Nc1nc(O[C@H]2CCOC2)c2c(-c3ccc4nc(C)oc4c3)c[nH]c2n1 [Example 343, (S)-3-methoxy-4-(5-(2-methylbenzo[d]oxazol-6-yl)-4-(tetrahydrofuran-3-yloxy)-7H-pyrrolo[2,3-d]pyrimidin-2-ylamino)-N-(oxetan-3-yl)benzamide]
23 | < 100 nM | – | CNC(=O)c1ccc(-c2c[nH]c3nc(Nc4ccc(C(=O)NC5CN(C)C5)cc4OC)nc(OC(C)C)c23)cc1 [Example 357, 4-(4-isopropoxy-5-(4-(methylcarbamoyl)phenyl)-7H-pyrrolo[2,3-d]pyrimidin-2-ylamino)-3-methoxy-N-(1-methylazetidin-3-yl)benzamide]
24 | 100 to 400 nM | – | COc1cc(C(=O)NC2COC2)ccc1Nc1nc(OC(C)C)c2c(-c3ccc4nc(C)oc4c3)c[nH]c2n1 [Example 362, 4-(4-isopropoxy-5-(2-methylbenzo[d]oxazol-6-yl)-7H-pyrrolo[2,3-d]pyrimidin-2-ylamino)-3-methoxy-N-(oxetan-3-yl)benzamide]
25 | – | 100 to 400 nM | COc1cc(C(=O)NC2COC2)ccc1Nc1nc(OC)c2c(-c3ccc4[nH]c(C)nc4c3)c[nH]c2n1 [Example 404, 3-methoxy-4-(4-methoxy-5-(2-methyl-1H-benzo[d]imidazol-5-yl)-7H-pyrrolo[2,3-d]pyrimidin-2-ylamino)-N-(oxetan-3-yl)benzamide]
26 | < 100 nM | – | CNC(=O)c1ccc(-c2c[nH]c3nc(Nc4ccc(C(=O)NC5COC5)cc4OC)nc(O[C@H]4CCOC4)c23)cc1 [Example 376, (S)-3-methoxy-4-(5-(4-(methylcarbamoyl)phenyl)-4-(tetrahydrofuran-3-yloxy)-7H-pyrrolo[2,3-d]pyrimidin-2-ylamino)-N-(oxetan-3-yl)benzamide]
27 | < 100 nM | – | COc1cc(C(=O)NC2CN(C)C2)ccc1Nc1nc(OC(C)C)c2c(-c3ccc4nc(C)oc4c3)c[nH]c2n1 [Example 356, 4-(4-isopropoxy-5-(2-methylbenzo[d]oxazol-6-yl)-7H-pyrrolo[2,3-d]pyrimidin-2-ylamino)-3-methoxy-N-(1-methylazetidin-3-yl)benzamide]
28 | 100 to 400 nM | – | CNC(=O)c1ccc(-c2c[nH]c3nc(Nc4ccc(C(=O)NC5CN(C)C5)cc4OC)nc(OC4CC4)c23)cc1 [Example 364, 4-(4-cyclopropoxy-5-(4-(methylcarbamoyl)phenyl)-7H-pyrrolo[2,3-d]pyrimidin-2-ylamino)-3-methoxy-N-(1-methylazetidin-3-yl)benzamide]
29 | 100 to 400 nM | – | COc1cc(C(=O)NC2COC2)ccc1Nc1nc(OC)c2c(-c3ccc4c(C)noc4c3)c[nH]c2n1 [Example 380, 3-methoxy-4-(4-methoxy-5-(3-methylbenzo[d]isoxazol-6-yl)-7H-pyrrolo[2,3-d]pyrimidin-2-ylamino)-N-(oxetan-3-yl)benzamide]
30 | < 100 nM | – | CNC(=O)c1ccc(Nc2nc(OC3CCCC3)c3c(-c4cccc(O)c4)c[nH]c3n2)c(OC)c1 [Example 323, 4-(4-(cyclopentyloxy)-5-(3-hydroxyphenyl)-7H-pyrrolo[2,3-d]pyrimidin-2-ylamino)-3-methoxy-N-methylbenzamide]

Reference: US9795607B2, “Substituted pyrrolopyrimidine compounds, compositions thereof, and methods of treatment therewith” (Signal Pharmaceutical, LLC, priority 2013, dated 2017)
